According to ChEMBL document CHEMBL1201862, “PubChem BioAssay data set” (2004):
Active and inactive are the calls of the source.

Tests used:
[1] = target: T1, Methionyl-tRNA synthetase, putative (Trypanosoma brucei brucei, UniProt Q38C91); assay type: functional, Trypanosoma brucei brucei strain 927/4 GUTat10.1
[2] = Counterscreen for inhibitors of Trypanosoma brucei methionyl tRNA synthetase (MetRS): Luminescence-based cell-based high throughput dose response assay to identify compounds that are cytotoxic to Jurkat human T lymphocyte cells.; assay type: functional
[3] = target: T1, Methionyl-tRNA synthetase, putative; assay type: functional, Trypanosoma brucei brucei strain 927/4 GUTat10.1; remark: listed apart in the source
[4] = general mammalian cell viability loss – inhibitor set, cherry-pick, set 2, cytotoxicity control for miR-122 modulator project, dose response (AID 720697); assay type: functional, cell-based
[5] = general mammalian cell viability loss – activator set, cherry-pick, cytotoxicity control for miR-122 modulator project, dose response (AID 720690); assay type: functional, cell-based;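 also: HEK293T human cells scored for general mammalian cytotoxicity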
[6] = activation of miR-122 Renilla sensor silencing – cell-based, Huh7 psiCHECK-miR122, Renilla luciferase, cherry-picked, dose response (AID 651956); assay type: functional;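 also: huh7 hepatoma cells stably carrying a psiCHECK-2 miR-122 sensor plasmid; renilla luciferase signal reporting endogenous miR-122 activity after 48 h compound exposure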
[7] = target: T2, Botulinum neurotoxin type A (Clostridium botulinum (strain Hall / ATCC 3502 / NCTC 13319 / Type A), UniProt P0DPI1); experiment: Confirmatory FRET assay using full length substrates for Botulinum neurotoxin light chain A protease, with Powder Set01.; assay type: functional
[8] = target: Lethal factor (Bacillus anthracis, UniProt P15917); experiment: High-throughput multiplex microsphere dose response for inhibitors of toxin protease, specifically Lethal Factor protease, compounds from Powder Set 01.; assay type: functional, Bacillus anthracis str. A2012; conditions: read-out: EC50_MICROM
[9] = target: Botulinum neurotoxin type F (Clostridium botulinum, UniProt P30996); experiment: High-throughput multiplex microsphere dose response for inhibitors of toxin protease, specifically Botulinum neurotoxin light chain F protease, compounds from Powder Set 01.; assay type: functional, Clostridium botulinum Bf; conditions: read-out: EC50_MICROM
[10] = target: T2, Botulinum neurotoxin type A; experiment: High-throughput multiplex microsphere dose response for inhibitors of toxin protease, specifically Botulinum neurotoxin light chain A protease, compounds from Powder Set 01.; assay type: functional, Clostridium botulinum A str. ATCC 3502; conditions: read-out: EC50_MICROM
[11] = test system: HeLa; experiment: viability loss in HeLa cells – cell-based, ATP luminescence, cherry-pick samples, cytotoxicity control, dose response (AID 687004); assay type: functional; conditions: Homo sapiens
[12] = viability loss in A549 lung cancer cells – cell-based, cherry-picks, […], cytotoxicity control, dose response (AID 1053119); assay type: functional
[13] = viability loss in HepG2 hepatoma cells – cell-based, cherry-picks, set 5, cytotoxicity control, dose response (AID 1053118); assay type: functional
[14] = target: Protein Wnt-3a (Mus musculus, UniProt P27467); experiment: SAR analysis of small molecule antagonists of Gli-SUFU in a Wnt3a luminescent reporter assay.; assay type: functional
Sequence of Protein Wnt-3a (P27467 whole entry): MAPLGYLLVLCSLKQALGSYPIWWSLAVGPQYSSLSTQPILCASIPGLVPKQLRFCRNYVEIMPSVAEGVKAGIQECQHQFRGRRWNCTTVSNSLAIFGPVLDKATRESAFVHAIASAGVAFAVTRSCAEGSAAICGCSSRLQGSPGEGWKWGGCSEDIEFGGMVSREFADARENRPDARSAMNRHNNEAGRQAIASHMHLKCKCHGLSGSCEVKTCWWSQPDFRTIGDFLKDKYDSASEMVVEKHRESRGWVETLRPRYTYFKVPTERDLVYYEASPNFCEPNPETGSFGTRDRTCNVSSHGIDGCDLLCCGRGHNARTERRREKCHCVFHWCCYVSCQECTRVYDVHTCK

T1 sequence (Q38C91 whole entry): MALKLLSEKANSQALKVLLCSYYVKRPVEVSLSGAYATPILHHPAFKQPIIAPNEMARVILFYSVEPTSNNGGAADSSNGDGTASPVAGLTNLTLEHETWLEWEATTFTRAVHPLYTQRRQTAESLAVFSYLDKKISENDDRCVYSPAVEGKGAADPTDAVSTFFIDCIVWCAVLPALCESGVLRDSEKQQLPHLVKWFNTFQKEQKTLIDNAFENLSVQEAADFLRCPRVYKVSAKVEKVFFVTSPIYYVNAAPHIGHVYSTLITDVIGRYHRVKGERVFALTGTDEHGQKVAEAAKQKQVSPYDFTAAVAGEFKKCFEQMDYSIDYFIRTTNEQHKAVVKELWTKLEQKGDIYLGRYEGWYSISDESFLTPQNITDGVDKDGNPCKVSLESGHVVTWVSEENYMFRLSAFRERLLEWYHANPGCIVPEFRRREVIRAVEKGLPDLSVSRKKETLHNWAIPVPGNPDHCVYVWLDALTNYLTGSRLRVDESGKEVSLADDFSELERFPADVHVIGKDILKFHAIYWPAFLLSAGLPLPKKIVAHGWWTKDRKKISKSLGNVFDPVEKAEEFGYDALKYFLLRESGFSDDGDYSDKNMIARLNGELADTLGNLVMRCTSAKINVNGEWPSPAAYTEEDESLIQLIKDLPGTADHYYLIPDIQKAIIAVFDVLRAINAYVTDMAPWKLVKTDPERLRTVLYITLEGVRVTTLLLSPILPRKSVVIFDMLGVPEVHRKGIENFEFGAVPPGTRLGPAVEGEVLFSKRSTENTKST
T2 sequence (P0DPI1 2-448 limits assumed): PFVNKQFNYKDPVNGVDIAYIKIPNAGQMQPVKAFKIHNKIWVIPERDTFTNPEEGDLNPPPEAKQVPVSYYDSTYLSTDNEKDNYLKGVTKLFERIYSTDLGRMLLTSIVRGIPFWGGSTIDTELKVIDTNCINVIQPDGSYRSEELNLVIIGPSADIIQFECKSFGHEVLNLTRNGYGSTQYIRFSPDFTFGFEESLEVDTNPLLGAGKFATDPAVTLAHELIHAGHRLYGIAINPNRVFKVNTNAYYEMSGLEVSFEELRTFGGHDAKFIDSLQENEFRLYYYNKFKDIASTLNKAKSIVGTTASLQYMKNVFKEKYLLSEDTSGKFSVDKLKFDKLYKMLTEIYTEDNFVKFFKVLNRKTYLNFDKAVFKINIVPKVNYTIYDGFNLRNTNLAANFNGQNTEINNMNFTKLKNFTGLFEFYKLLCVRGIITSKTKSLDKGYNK
Sequence of Botulinum neurotoxin type F (P30996 1-436 limits assumed): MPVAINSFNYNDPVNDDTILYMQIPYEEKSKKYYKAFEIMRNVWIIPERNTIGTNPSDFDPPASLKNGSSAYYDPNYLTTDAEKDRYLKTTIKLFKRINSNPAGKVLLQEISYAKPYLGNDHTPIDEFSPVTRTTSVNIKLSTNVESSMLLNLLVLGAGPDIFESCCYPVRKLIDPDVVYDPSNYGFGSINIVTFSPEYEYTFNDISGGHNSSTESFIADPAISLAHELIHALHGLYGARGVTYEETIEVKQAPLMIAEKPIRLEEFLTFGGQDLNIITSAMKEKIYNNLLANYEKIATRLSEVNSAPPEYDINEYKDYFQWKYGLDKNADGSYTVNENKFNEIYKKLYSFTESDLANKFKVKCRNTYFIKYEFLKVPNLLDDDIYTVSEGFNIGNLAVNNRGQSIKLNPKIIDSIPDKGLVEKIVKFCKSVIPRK
Sequence of Lethal factor (P15917 whole entry): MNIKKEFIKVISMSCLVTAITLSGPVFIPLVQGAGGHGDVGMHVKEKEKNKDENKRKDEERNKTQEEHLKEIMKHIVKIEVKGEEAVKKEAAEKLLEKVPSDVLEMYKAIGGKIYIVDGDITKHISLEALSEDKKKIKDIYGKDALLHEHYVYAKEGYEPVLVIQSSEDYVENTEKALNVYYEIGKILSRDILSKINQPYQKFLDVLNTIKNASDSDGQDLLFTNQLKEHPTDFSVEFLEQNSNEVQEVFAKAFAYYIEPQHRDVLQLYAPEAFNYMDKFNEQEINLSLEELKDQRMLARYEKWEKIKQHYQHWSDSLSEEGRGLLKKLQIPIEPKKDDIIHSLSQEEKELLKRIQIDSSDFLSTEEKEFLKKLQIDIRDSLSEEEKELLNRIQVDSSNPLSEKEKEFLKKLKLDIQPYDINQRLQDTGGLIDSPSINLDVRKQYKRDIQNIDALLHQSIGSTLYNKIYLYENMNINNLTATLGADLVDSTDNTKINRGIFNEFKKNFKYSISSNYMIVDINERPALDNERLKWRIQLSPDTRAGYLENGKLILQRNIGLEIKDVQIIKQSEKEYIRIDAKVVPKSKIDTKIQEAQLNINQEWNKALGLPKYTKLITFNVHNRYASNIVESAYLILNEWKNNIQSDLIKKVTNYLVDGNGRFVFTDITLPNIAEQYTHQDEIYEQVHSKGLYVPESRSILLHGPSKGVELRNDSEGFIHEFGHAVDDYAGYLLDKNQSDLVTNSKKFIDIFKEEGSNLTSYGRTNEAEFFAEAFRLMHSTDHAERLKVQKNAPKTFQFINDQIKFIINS

For `O=C(Nc1ccccc1)Nc1nnc(CSCc2ccccc2Cl)s1`, which IC50 [1] is on record?
Its IC50 is 6.26 µM (active).

And the IC50 [2]?
Its IC50 is 27.7 µM (inactive).

And the IC50 [3]?
Its IC50 is 46.7 µM (inactive).

What does the source list for `C[C@@H]1CN([C@@H](C)CO)C(=O)Cc2cc(NC(=O)c3ccncc3)ccc2O[C@H]1CN(C)Cc1ccc(-c2ccccc2)cc1`?
AC50 [4]: 15.9 µM (active); AC50 [5]: 23.6 µM (active); AC50 [6]: 4.94 µM (active)

Which EC50 [7] does the source give for `Clc1ccc(-c2cn3nc(-c4ccccc4)c(-c4ccccc4)nc3n2)cc1` here?
Its EC50 is 2.4 µM (active).

What about the EC50 [8] of the same molecule?
Its EC50 is 1.6 µM (active).

And the EC50 [9]?
Its EC50 is 7.4 µM (active).

And the EC50 [10]?
Its EC50 is 1 µM (active).

For `C[C@@H]1CN([C@@H](C)CO)C(=O)c2cc(NS(=O)(=O)c3cn(C)cn3)ccc2O[C@@H](C)CCCCO[C@@H]1CN(C)Cc1ccc(C(F)(F)F)cc1`, which AC50 [11] is on record?
Its AC50 is 13 µM (active).

Which AC50 [12] does the source give for `O=C(c1cccnc1)N1C[C@@H]2[C@H](c3ccccc31)[C@@H](CO)N2CC1CCCC1` here?
Its AC50 is > 52 µM (inactive).

And the AC50 [13]?
The AC50 was > 52 µM (inactive).

For `CC(C)Nc1cc(NC(=O)c2ccccc2)ncn1`, which IC50 [14] is on record?
The IC50 was > 21.8 µM (inactive).
